“Also recorded” adds a separate entry of the source. Where two headings read alike, the source gives them in different places.
Columns and labels:
[1] = Short term clinical testing, motor disturbance: FMS (Fugl-Meyer score); type: in vivo, clinical subjects; details: for Improvement in FMS: individual case
Description: (§1) Clinical testing was conducted to evaluate the effects of the restorative neuropharmacological agent for motor and speech disturbance according to this invention.
(§2) Clinical subjects for motor disturbance were 2 cases after cerebral aneurysm operations (subarachnoid hemorrhage), 9 cases of brain hemorrhage and 10 cases of brain infarction with chronic apoplectic paralysis, i.e. a total of 21 cases (12 males and 9 females, age 43-83 with an average 61.9±2.5 years). For these clinical subjects, the average time elapsed from the onset had occurred was 100 days.
(§3) First, the clinical subjects received physical therapy without administration of droxidopa (L-DOPS), and then they were evaluated with FMS (Fugl-Meyer score), 10-meter walking and the Barthel index. The clinical subjects then received administration of 300 mg droxidopa (L-DOPS) per day for 2 days in addition to the physical therapy, and were evaluated with FMS. 10-meter walking and with the Barthel index.

SD rats [2] = details: oral, 12 months, cited from earlier work
[3] = Short term clinical testing, motor disturbance: 10-meter walking; type: in vivo, clinical subjects; details: of the 21 cases; 300 mg per day for 2 days
Description: as §1, §2, §3

mice = details: cited from earlier work
SD rats [4] = details: cited from earlier work
[5] = Clinical testing, speech disturbance (Broca aphasia after stroke): standard aphasia testing (SLAT); type: in vivo, clinical subjects; details: after 2 weeks
Description: (§4) The clinical subjects for speech disturbance were 10 cases of Broca aphasia after stroke (3 males and 7 females, age 51-65 with an average of 58.6±1.6 years).
(§5) First, without administration of droxidopa, the clinical subjects were evaluated with standard aphasia testing (SLAT). […] For 8 of the clinical subjects, 100 mg of droxidopa was administered once a day for a subsequent 2 weeks and evaluation was conducted using SLAT.

[6] = Speech observation on administration and on stopping administration, Broca aphasia after stroke; type: in vivo, clinical subjects
Description: as §4, §5
Administration of droxidopa to these clinical subjects was stopped after 2 weeks. As a result, speech was totally lost in 2 cases. Subsequently, administration of droxidopa was stopped twice and, in one case, speech was totally lost every time administration was stopped and restored when administration was resumed.

Mice, ICR strain = details: cited from earlier work
[7] = Short term clinical testing, motor disturbance: Barthel index (ADL); type: in vivo, clinical subjects; details: of the 19 cases improved in 10-meter walking; 300 mg per day for 2 days
Description: as §1, §2, §3

beagle dogs [8] = details: cited from earlier work; for LD50: oral
microorganisms = details: cited from earlier work
SD rats [9] = details: oral 60, 200, 600 mg/kg/day, male and female; cited from earlier work
[10] = Short term clinical testing: central-facial palsy; type: in vivo, clinical subjects; details: all of the 12 cases with central-facial palsy; 300 mg per day for 2 days; none of 6 control cases
rabbits = details: oral 30, 100, 300 mg/kg/day; cited from earlier work
cultured cells = details: cited from earlier work
[11] = system: guinea pigs (Hartley strain, male); details: cited from earlier work
physchem = type: physicochemical; details: titration method
Source text: (§6) L-threo-DOPS, whose molecular formula is C9 H11 NO5, is white or light brown crystals or crystalline powder with no taste or odor. […] It is difficult to measure a clear melting point or decomposition point for L-threo-DOPS. […] DL-threo-DOPS, which contains 50% L-threo-DOPS, can also be used in this invention. Hereafter, L-threo-DOPS and DL-threo-DOPS are generically denoted as "threo-DOPS".

beagle dogs [12] = details: oral 125, 500, 2,000 mg/kg/day, 12 months; cited from earlier work
Rats, SD strain = details: cited from earlier work
SD rats [13] = details: 3 months, cited from earlier work
rhesus monkeys [14] = details: oral 300, 1,000, 3,000 mg/kg/day, 3 months; cited from earlier work
beagle dogs [15] = details: oral 200, 600, 2,000 mg/kg/day, 3 months; cited from earlier work
[16] = Repeated 2-day administration after 1-2 weeks and halt of administration, motor functions; type: in vivo, clinical subjects
Source text: The administration of droxidopa to the clinical subjects was then halted, but the level of the improvement effect on motor functions was maintained.

rhesus monkeys [17] = details: cited from earlier work; for LD50: oral
[18] = Side-effects in clinical subjects with speech disturbance; type: in vivo; details: clinical subjects with Broca aphasia
Description: as §4, §5

SD rats [19] = details: cited from earlier work; for perinatal and lactation period findings: oral
solubility = type: physicochemical
Source text: as §6

[20] = Long term administration testing: Barthel index (ADL); type: in vivo, clinical subjects; details: for Improvement in ADL: individual case
Description: Based on the above results, […] term administration testing was conducted.

[21] = conventional pharmacological features; cited from earlier work
[22] = system: aromatic L-amino acid decarboxylase; details: by aromatic L-amino acid decarboxylase; conventional pharmacological features; cited from earlier work
[23] = of the 21 cases, 300 mg per day for 2 days

For `N[C@@H](C(=O)O)[C@H](O)c1ccc(O)c(O)c1` [L-threo-DOPS, (-)-(2R, 3R)-2-amino-3-hydroxy-3-(3,4-dihydroxyphenyl) propionic acid], the FMS increase ([1]; 300 mg per day for 2 days plus physical therapy, higher than control cases) was 2.5±0.5, the “Improvement in FMS” value ([1]; brain hemorrhage (BH), 300 mg per day for 2 days plus physical therapy, listed as L-DOPS) was “Improved; also recorded: No change” and the “Improvement in FMS” value ([1]; brain infarction (BI), 300 mg per day for 2 days plus physical therapy, listed as L-DOPS) was “Improved; also recorded: No change”. The “Improvement in FMS” value ([1]; subarachnoid hemorrhage (SAH), 300 mg per day for 2 days plus physical therapy) was “Improved”, the “cases with improved balance (FMS)” value [1, 23] was 3 cases and the “cases with improvement in lower limb motor function (FMS)” value [1, 23] was 6 cases. The “cases with improvement in upper limb motor function (FMS)” value [1, 23] was 10 cases, the “cases with improved FMS” value ([1]; of the 21 cases, 300 mg per day for 2 days plus physical therapy) was 15 cases and the chronic toxicity findings (SD rats [2]; 30 mg/kg/day and higher) was “suppression of weight increases, an increase in thymus weight, necrosis of kidney uriniferous tubuli, degeneration of kidney glomeruli, etc. were observed”. For the same molecule, the chronic toxicity findings (SD rats [2]; 100 mg/kg/day and higher) was “drooling, myocarditis and calcification of cardiac muscles, etc. were observed”, the “cases with improvement in the 10-meter walking” value [3] was 19 cases and the “mutagenicity, micronucleus testing” value (mice) was “no mutagenicity was observed”. For the same molecule, the “other influence, organ forming period” value (SD rats [4]; oral 60, 200, 600 mg/kg/day) was “No other influence was observed”, the findings in fetuses (SD rats [4]; oral, 200 mg/kg or higher, restorable after birth) was “lower body weights of fetuses and an increase in the occurrence of undulating ribs were observed” and the “cases with improvement in "hearing" (SLAT)” value [5] was “one”. For the same molecule, the “cases with improvement in "reading" (SLAT)” value [5] was 3 cases, the “cases with improvement in "repeating" (SLAT)” value [5] was 2 cases and the “cases with improvement in "speaking" (SLAT)” value [5] was 7 cases. The “cases with improvement in "writing" (SLAT)” value [5] was 6 cases, the “average improvement rate, SLAT "hearing", imperatives” value ([5]; 100 mg once a day) was 16% and the “average improvement rate, SLAT "hearing", short sentences” value ([5]; 100 mg once a day) was 33%. For the same molecule, the “average improvement rate, SLAT "reading", Chinese character words” value ([5]; 100 mg once a day) was 10%, the “average improvement rate, SLAT "reading", short sentences” value ([5]; 100 mg once a day) was 20% and the “average improvement rate, SLAT "repeating"” value ([5]; 100 mg once a day) was 10%. The “average improvement rate, SLAT "speaking", actions” value ([5]; 100 mg once a day) was 13%, the “average improvement rate, SLAT "speaking", names” value ([5]; 100 mg once a day) was 27% and the “average improvement rate, SLAT "writing", Japanese syllabary words” value ([5]; 100 mg once a day) was 20%. The “cases with improved SLAT results” value ([5]; of the 10 cases) was 8 cases, the “speech after 2 days of administration” value ([6]; 300 mg, 3 times a day for 2 days) was “speech improved” and the “cases in which speech was totally lost after administration was stopped” value ([6]; administration stopped after 2 weeks) was 2 cases. For the same molecule, the “cases in which speech was totally lost every time administration was stopped and restored when resumed” value ([6]; administration stopped twice) was “one”, the LD50 (Mice, ICR strain; hypodermic, female) was > 10000 mg/kg and the LD50 (Mice, ICR strain; hypodermic, male) was > 10000 mg/kg. For the same molecule, the LD50 (Mice, ICR strain; intravenous, female) was > 100 mg/kg, the LD50 (Mice, ICR strain; intravenous, male) was > 100 mg/kg and the “general symptoms, acute toxicity” value (Mice, ICR strain; mice) was “reduced voluntary motions, deep breathing and bradypnea were observed”. For the same molecule, the LD50 (Mice, ICR strain; oral, female) was > 10000 mg/kg, the LD50 (Mice, ICR strain; oral, male) was > 10000 mg/kg and the “cases with improvement in the Barthel index (ADL)” value [7] was “one”. For the same molecule, the “general symptoms, acute toxicity” value (beagle dogs [8]; dogs) was “no abnormal symptom was observed”, the LD50 (beagle dogs [8]; female) was > 5000 mg/kg and the LD50 (beagle dogs [8]; male) was > 5000 mg/kg. For the same molecule, the “mutagenicity, back mutation testing” value (microorganisms) was “no mutagenicity was observed”, the “mating rate, conception rate, nidation number, embryo/neonate death, teratogenic actions or fetal development” value (SD rats [9]) was “no influence was observed” and the “cases with central-facial palsy that showed improvement” value [10] was 12 cases. For the same molecule, the “influence, organ forming period” value (rabbits) was “no influence on the rabbits was observed”, the “mutagenicity, chromosome abnormality testing” value (cultured cells) was “no mutagenicity was observed” and the Endodermoreaction [11] was “negative”. The PCA reaction [11] was “negative”, the intra-gel sedimentation reaction [11] was “negative” and the systemic anaphylaxis reaction [11] was “negative”. For the same molecule, the pKa (physchem) was 7.88, the chronic toxicity findings (beagle dogs [12]) was “no abnormality was observed” and the LD50 (Rats, SD strain; hypodermic, female) was 95 mg/kg. The LD50 (Rats, SD strain; hypodermic, male) was 84 mg/kg, the LD50 (Rats, SD strain; intravenous, female) was 19 mg/kg and the LD50 (Rats, SD strain; intravenous, male) was 16 to 19 mg/kg. For the same molecule, the LD50 (Rats, SD strain; oral, female) was > 10000 mg/kg, the LD50 (Rats, SD strain; oral, male) was > 10000 mg/kg and the “general symptoms, acute toxicity” value (Rats, SD strain; rats) was “reduced voluntary motions, deep breathing and bradypnea were observed”. The subacute toxicity findings (SD rats [13]; oral, 60 mg/kg/day and higher) was “suppressed voluntary motions, necrosis of kidney uriniferous tubuli, necrosis of cardiac muscles, etc. were observed”, the subacute toxicity findings (SD rats [13]; oral, 300 mg/kg/day and higher) was “Suppression of weight increases and such were observed” and the subacute toxicity findings (SD rats [13]; oral, 1,500 mg/kg/day) was “Drooling was observed”. For the same molecule, the subacute toxicity findings (rhesus monkeys [14]) was “no abnormality was observed”, the subacute toxicity findings (beagle dogs [15]) was “no abnormality was observed” and the “cases with further improvement on repeated administration” value ([16]; 5 cases re-dosed for 2 consecutive days after 1-2 weeks) was 3 cases. For the same molecule, the “level of the improvement effect on motor functions after administration was halted” value ([16]; after halting administration) was “maintained”, the LD50 (rhesus monkeys [17]; female) was > 5000 mg/kg and the LD50 (rhesus monkeys [17]; male) was > 5000 mg/kg. For the same molecule, the “general symptoms, acute toxicity” value (rhesus monkeys [17]; rhesus monkeys) was “no abnormal symptom was observed”, the side-effects [18] was “No serious side-effect was observed” and the “other influence, perinatal and lactation period” value (SD rats [19]; oral 60, 200, 600 mg/kg/day) was “No other influence was observed”. The “perinatal and lactation period findings” value (SD rats [19]; 60 mg/kg or higher) was “suppression of neonatal development after birth was observed”, the “perinatal and lactation period findings” value (SD rats [19]; 600 mg/kg) was “shortening of the pregnancy period was observed” and the solubility in ethanol (solubility; ethanol) was “dissolves very little”. For the same molecule, the solubility in ether (solubility; ether) was “dissolves very little”, the “solubility in glacial acetic acid” value (solubility; glacial acetic acid) was “dissolves very little” and the solubility in water (solubility; water) was “dissolves only slightly”. The “dependence of results on time elapsed since onset of the illness” value ([20]; 200-500 mg/day for 2 weeks to 2 months) was “independent of the time elapsed since onset of the illness”, the “Improvement in ADL” value ([20]; 200 mg per day × 2W, listed as L-DOPS) was “Improved; also recorded: No change” and the “Improvement in ADL” value ([20]; 200 mg per day × 4W) was “No change”. For the same molecule, the “Improvement in ADL” value ([20]; 200 mg per day × 8W) was “Improved”, the “Improvement in ADL” value ([20]; 300 mg per day × 3W) was “Improved” and the “Improvement in ADL” value ([20]; 300 mg per day × 6W) was “Improved”. The “Improvement in ADL” value ([20]; 300 mg per day × 7W) was “No change”, the “Improvement in ADL” value ([20]; 500 mg per day × 6W) was “Improved” and the “cases with improvement in the Barthel index (ADL)” value ([20]; of the 10 cases, 200-500 mg/day for 2 weeks to 2 months) was 7 cases.
For `N[C@H](C(=O)O)[C@H](O)c1ccc(O)c(O)c1` [threo-DOPS], the “passage through the blood-brain barrier” value [21] is given as “passes through the blood-brain barrier into the brain” and the conversion to norepinephrine [22] is given as “directly converted to 1-norepinephrine”.

Reference: patent US5656669A, “Restorative neuropharmacological agent for motor and speech disturbance” (Sumitomo Pharmaceuticals Co., Ltd., priority 1994, dated 1997)
